US11529295B2, “Oral care composition” (Church & Dwight Co., Inc., priority 2019, dated 2022)

Assay: Fluoride Uptake Study, FDA monograph evaluation (FDA Method #40)
Design: species or system bovine
Conditions: comparison between formulas, Tables 2 and 3
Protocol: Formulas 1 and 2, according to Example 1 above, are assessed by Fluoride Uptake Study, FDA monograph evaluation (FDA Method #40). A Control Formula, Placebo Formula, and USP Toothpaste Standard Formula are also assessed for comparison.
Sound, upper, central, bovine incisors were selected and cleaned of all adhering soft tissue. A core of enamel 3 mm in diameter was prepared from each tooth by cutting perpendicular to the labial surface with a hollow-core diamond drill bit. This was performed under water to prevent overheating of the specimens. Each specimen was embedded in the end of a plexiglass rod (114″ diameter×2″ long) using methylmethacrylate. […]
Each enamel specimen was then etched by immersion into 0.5 ml of 1M HC104 for 15 seconds. […] A sample of each solution was then buffered with TISAB to a pH of 5.2 (0.25 ml sample, 0.5 ml TISAB and 0.25 ml IN NaOH) and the fluoride content determined by comparison to a similarly prepared standard curve (1 ml std and 1 ml TISAB). For use in depth of etch calculation, the Ca content of the etch solution was determined by taking 50μl and analyzing for Ca by atomic absorption (0.05 ml qs to 5 ml). […]
The treatments were performed using supernatants of the dentifrice slurries. […] One layer of enamel was then removed from each specimen and analyzed for fluoride and calcium as outlined above (i.e., 15 second etch). […]

For `O.O.O.O=C([O-])CC(O)(CC(=O)[O-])C(=O)[O-].O=C([O-])CC(O)(CC(=O)[O-])C(=O)[O-].[Zn+2].[Zn+2].[Zn+2]` [zinc citrate trihydrate], the “enamel fluoride uptake, comparison in words” value was “will not have a significant negative impact on Enamel Fluoride Uptake”.
